Tests used:
[1] = molecular target: T1, glucocorticoid receptor (GR) (Homo sapiens, UniProt P04150); test: binding to recombinantly produced glucocorticoid receptor, cytosol preparations of Sf9 cells, [3H]-dexamethasone as reference; conditions: recombinant GR
T1 construct: made in house; host or cells: Sf9 cells infected with recombinant baculovirus (cytosol preparation)
T1 sequence (P04150 1-777): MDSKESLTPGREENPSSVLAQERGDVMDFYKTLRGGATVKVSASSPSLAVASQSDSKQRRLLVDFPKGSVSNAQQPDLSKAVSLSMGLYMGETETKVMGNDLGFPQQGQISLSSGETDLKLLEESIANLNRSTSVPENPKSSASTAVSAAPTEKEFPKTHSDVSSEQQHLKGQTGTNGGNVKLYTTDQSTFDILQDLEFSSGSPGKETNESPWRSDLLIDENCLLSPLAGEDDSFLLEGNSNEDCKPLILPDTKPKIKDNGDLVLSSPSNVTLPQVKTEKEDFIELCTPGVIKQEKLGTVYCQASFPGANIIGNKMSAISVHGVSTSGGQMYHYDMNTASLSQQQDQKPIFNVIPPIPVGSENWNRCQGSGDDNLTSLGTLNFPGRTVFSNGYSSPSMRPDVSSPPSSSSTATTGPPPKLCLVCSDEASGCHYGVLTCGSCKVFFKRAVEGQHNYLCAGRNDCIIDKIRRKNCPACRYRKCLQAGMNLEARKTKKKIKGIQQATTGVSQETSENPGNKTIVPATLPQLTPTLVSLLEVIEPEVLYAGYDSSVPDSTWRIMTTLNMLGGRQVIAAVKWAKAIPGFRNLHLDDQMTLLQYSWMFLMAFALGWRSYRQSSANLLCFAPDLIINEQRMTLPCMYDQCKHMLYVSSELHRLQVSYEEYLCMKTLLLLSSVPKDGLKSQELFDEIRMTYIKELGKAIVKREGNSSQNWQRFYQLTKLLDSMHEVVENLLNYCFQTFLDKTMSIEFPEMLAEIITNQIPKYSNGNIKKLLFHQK
Excerpt: (§1) The binding of the substances to the glucocorticoid receptor (GR) and other steroid hormone receptors (mineral corticoid receptor (MR), progesterone receptor (PR) and androgen receptor (AR)) is examined with the aid of recombinantly produced receptors. Cytosol preparations of Sf9 cells, which had been infected with recombinant baculoviruses, which code for the GR, are used for the binding studies. In comparison to reference substance [^3H]-dexamethasone, the substances show a high to very high affinity to GR.

[2] = molecular target: T2, mineral corticoid receptor (MR) (Homo sapiens, UniProt P08235); test: binding to recombinantly produced mineral corticoid receptor
T2 construct: made in house
T2 sequence (P08235 1-984): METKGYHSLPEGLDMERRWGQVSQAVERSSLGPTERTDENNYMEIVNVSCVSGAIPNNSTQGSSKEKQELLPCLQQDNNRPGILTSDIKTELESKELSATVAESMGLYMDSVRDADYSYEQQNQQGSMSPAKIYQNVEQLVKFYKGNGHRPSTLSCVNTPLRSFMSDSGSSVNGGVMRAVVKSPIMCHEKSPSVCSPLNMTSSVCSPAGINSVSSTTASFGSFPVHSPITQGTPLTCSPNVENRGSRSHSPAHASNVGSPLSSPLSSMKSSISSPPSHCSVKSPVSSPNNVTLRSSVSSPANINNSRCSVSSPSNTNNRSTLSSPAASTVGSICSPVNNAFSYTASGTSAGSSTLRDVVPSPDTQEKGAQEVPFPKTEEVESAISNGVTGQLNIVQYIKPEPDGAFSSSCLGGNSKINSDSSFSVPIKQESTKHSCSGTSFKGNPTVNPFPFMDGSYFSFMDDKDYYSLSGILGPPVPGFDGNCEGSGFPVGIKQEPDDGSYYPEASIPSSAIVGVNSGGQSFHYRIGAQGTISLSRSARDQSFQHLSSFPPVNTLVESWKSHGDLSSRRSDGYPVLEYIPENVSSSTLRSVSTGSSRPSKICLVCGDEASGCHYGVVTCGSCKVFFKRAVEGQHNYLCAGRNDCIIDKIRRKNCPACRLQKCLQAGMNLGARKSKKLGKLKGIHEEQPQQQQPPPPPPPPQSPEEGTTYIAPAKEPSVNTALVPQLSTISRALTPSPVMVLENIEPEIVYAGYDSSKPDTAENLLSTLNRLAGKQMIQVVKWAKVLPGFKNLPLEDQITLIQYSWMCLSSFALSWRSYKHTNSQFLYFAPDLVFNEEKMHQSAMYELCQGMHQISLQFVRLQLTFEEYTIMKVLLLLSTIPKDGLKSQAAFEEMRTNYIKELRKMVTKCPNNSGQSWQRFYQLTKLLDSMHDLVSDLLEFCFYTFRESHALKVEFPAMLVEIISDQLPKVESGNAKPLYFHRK
Excerpt: as §1

[3] = molecular target: T3, progesterone receptor (PR) (Homo sapiens, UniProt P06401); test: binding to recombinantly produced progesterone receptor
T3 construct: made in house
T3 sequence (P06401 1-933): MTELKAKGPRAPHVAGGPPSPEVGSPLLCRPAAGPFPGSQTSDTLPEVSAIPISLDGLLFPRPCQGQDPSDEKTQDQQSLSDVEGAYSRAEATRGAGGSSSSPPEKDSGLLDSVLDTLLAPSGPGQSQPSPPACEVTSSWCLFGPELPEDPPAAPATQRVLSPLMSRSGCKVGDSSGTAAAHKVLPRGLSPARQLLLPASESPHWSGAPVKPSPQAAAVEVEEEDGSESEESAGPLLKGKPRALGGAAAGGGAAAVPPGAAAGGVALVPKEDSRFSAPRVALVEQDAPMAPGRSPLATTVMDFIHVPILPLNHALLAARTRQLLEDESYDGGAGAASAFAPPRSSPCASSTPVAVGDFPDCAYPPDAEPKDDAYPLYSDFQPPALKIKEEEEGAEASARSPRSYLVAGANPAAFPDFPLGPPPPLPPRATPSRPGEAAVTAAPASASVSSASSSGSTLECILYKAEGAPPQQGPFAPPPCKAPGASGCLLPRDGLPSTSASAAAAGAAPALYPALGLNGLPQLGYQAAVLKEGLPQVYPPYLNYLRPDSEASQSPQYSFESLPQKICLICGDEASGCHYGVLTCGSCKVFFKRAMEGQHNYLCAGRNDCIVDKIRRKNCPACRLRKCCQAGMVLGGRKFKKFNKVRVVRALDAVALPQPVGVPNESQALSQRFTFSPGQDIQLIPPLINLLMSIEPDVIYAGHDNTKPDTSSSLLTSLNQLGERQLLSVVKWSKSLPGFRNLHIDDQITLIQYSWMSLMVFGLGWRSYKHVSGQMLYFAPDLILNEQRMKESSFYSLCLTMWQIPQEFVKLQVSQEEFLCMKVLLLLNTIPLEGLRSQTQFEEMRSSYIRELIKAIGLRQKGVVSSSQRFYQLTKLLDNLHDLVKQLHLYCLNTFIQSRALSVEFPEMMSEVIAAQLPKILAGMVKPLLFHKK
Excerpt: as §1

androgen receptor (AR) = molecular target: T4, androgen receptor (AR) (Homo sapiens, UniProt P10275); test: binding to recombinantly produced androgen receptor
T4 construct: made in house
T4 sequence (P10275 1-920): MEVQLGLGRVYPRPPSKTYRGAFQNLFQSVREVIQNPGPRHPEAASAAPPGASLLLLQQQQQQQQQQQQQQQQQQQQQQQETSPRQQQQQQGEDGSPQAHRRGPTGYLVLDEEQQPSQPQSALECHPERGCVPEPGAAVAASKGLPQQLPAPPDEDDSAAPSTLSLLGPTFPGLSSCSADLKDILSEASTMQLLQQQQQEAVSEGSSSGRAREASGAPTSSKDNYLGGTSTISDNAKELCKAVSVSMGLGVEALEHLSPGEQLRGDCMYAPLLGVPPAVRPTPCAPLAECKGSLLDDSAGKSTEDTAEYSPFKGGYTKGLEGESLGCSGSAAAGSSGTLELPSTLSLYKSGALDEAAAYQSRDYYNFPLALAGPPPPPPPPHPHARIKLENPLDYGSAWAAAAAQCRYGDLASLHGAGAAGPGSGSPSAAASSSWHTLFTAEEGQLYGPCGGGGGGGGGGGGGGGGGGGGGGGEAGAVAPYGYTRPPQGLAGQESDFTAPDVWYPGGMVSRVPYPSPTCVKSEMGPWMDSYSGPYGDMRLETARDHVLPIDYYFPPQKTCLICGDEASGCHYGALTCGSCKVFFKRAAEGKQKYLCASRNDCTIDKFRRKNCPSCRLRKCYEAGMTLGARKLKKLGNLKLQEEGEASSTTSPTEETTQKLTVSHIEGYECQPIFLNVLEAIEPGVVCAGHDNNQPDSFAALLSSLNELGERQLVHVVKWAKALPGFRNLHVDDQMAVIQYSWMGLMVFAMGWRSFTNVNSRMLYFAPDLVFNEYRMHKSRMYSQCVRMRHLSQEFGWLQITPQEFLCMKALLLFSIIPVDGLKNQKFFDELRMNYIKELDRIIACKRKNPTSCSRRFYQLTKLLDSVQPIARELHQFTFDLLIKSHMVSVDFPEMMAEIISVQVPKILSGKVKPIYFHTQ
Excerpt: as §1

ER = test: steroid receptor binding, ER
[4] = test system: secretion of cytokine IL-8 in human monocyte cell line THP-1; test: inhibition of LPS-triggered IL-8 secretion in THP-1 cells (ELISA); assay type: cell-based
Protocol: The concentration of the cytokines was determined in the supernatant by means of commercially available ELISA kits.

IC50 [1]: 6 nM | IC50 [2]: > 1000 nM | IC50 [3]: > 1000 nM | IC50 (androgen receptor (AR)): > 1000 nM | IC50 (ER): > 1000 nM | IC50 ([4]; Homo sapiens, read-out: IC50(IL8)): 7.1 nM
SMILES: COc1c(F)ccc2c1C(C)(C)C[C@](O)(C(F)(F)F)[C@H]2NC(=O)c1cnn(-c2ccc(F)cc2F)c1N (relative stereo) [Example 3, 5-Amino-1-(2,4-difluorophenyl)-N-[(cis)-6-fluoro-1,2,3,4-tetrahydro-2-hydroxy-5-methoxy-4,4-dimethyl-2-(trifluoromethyl)naphthalene-1-yl]-1H-pyrazole-4-carboxamide]
eff. relative to dexamethasone ([4]; IL-8 inhibition): 96%

— patent US20080200519A1, “TETRAHYDRONAPHTHALENYLAMIDES, A PROCESS FOR THEIR PRODUCTION AND THEIR USE AS ANTI-INFLAMMATORY AGENTS” (priority 2007, published 2008)
